Common to all, as to type: in vivo
One experiment deals with Venturia inaequalis. In words: Venturia test (apple)/protective. Conditions: topical, 240 h, protective, application rate 100 g/ha, evaluation 10 days after inoculation, read-out: Efficacy in %. Here is the method:
Venturia Test (Apple)/Protective [table] To produce a suitable preparation of active compound, 1 part by weight of active compound is mixed with the stated amounts of solvent and emulsifier, and the concentrate is diluted with water to the desired concentration. To test for protective activity, young plants are sprayed with the preparation of active compound at the stated application rate. After the spray coating has dried on, the plants are inoculated with an aqueous conidia suspension of the apple scab pathogen Venturia inaequalis and then remain in an incubation cabin at about 20° C. and 100% relative atmospheric humidity for 1 day. The plants are then placed in a greenhouse at about 21° C. and a relative atmospheric humidity of about 90%.

The subject of the next experiment is Alternaria solani. In words: Alternaria test (tomato)/protective. To be noted: protective, application rate 750 g/ha, evaluation 7 days after inoculation. The procedure:
(Tomato)/Protective [table] To produce a suitable preparation of active compound, 1 part by weight of active compound is mixed with the stated amounts of solvent and emulsifier, and the concentrate is diluted with water to the desired concentration. To test for protective activity, young tomato plants are sprayed with the preparation of active compound at the stated application rate. 1 day after the treatment, the plants are inoculated with a spore suspension of Alternaria solani and then remain at 100% rel. humidity and 20° C. for 24 h. The plants then remain at 96% rel. atmospheric humidity and a temperature of 20° C.

Experiment [1] relates to Fusarium nivale (var. majus). Briefly: Fusarium nivale (var. majus) test (wheat)/protective. To be noted: protective, application rate 500 g/ha, evaluation 6 days after inoculation. Here is the method:
Fusarium nivale (var. majus) Test (Wheat)/Protective [table] To produce a suitable preparation of active compound, 1 part by weight of active compound is mixed with the stated amounts of solvent and emulsifier, and the concentrate is diluted with water to the desired concentration. To test for protective activity, young plants are sprayed with the preparation of active compound at the stated application rate. After the spray coating has dried on, the plants are sprayed with a conidia suspension of Fusarium nivale (var. majus). The plants are placed in a greenhouse under transparent incubation hoods at a temperature of about 15° C. and a relative atmospheric humidity of about 100%.

The subject of the next experiment is Pyricularia oryzae. Conditions: rice, protective, application rate 500 g/ha, evaluation 6 days after inoculation.
Experiment [2] relates to diamondback moth (Plutella xyostella). In words: Plutella test (plant-damaging insects). Conditions: 1000 ppm active compound on synthetic feed, eggs/larvae. The procedure:
Plutella Test [table] To produce a suitable preparation of active compound, 1 part by weight of active compound is mixed with the stated amount of solvent, and the concentrate is diluted with methanol to the desired concentrations. A stated amount of preparation of active compound of the desired concentration is pipetted onto a standardized amount of synthetic feed. After the methanol has evaporated, about 200-300 eggs of the diamondback moth (Plutella xyostella) are placed onto the feed. After the desired period of time, the kill of the eggs or larvae in % is determined. 100% means that all animals have been killed; 0% means that none of the animals has been killed.

Regarding `CC(C)[C@@H](C)Nc1c(-c2c(F)cc(F)cc2F)c(Cl)nc2c(C#N)cnn12` [drawing 98], the pest or weed control at 100 g/ha in the experiment on Venturia inaequalis amounted to 100%.

As to `CCC(C)Nc1c(-c2c(F)cc(F)cc2F)c(Cl)nc2c(C#N)cnn12` (stereo not drawn) [drawing 99], in the experiment on Venturia inaequalis, the pest or weed control at 100 g/ha was 100%.

On to `CC(C)Nc1c(-c2c(F)cc(F)cc2F)c(Cl)nc2c(C#N)cnn12` [drawing 100], for which, in the experiment with Venturia inaequalis, the pest or weed control at 100 g/ha was found to be 98%.

Take `CC(C)CN(C)c1c(-c2c(F)cc(F)cc2F)c(Cl)nc2c(C#N)cnn12` [drawing 101]: in the experiment with Venturia inaequalis, the pest or weed control at 100 g/ha is 100%.

On to `C=C(C)CN(C)c1c(-c2c(F)cc(F)cc2F)c(Cl)nc2c(C#N)cnn12` [drawing 102], for which the pest or weed control at 100 g/ha in the experiment with Venturia inaequalis was 100%.

As for `CC(Nc1c(-c2ccc(F)cc2Cl)c(Cl)nc2c(C#N)cnn12)C(F)(F)F` (stereo not drawn) [drawing 103], the pest or weed control at 100 g/ha in the experiment on Venturia inaequalis stood at 93%.

Turning to `C[C@H](Nc1c(-c2ccc(F)cc2Cl)c(Cl)nc2c(C#N)cnn12)C(F)(F)F` [drawing 104], the pest or weed control at 100 g/ha in the experiment with Venturia inaequalis was 100%.

On to `CC(C)CN(C)c1c(-c2ccccc2Cl)c(Cl)nc2c(C#N)cnn12` [drawing 105], for which the pest or weed control at 100 g/ha in the experiment with Venturia inaequalis is 100%.

For `CC1CCN(c2c(-c3ccccc3Cl)c(Cl)nc3c(C#N)cnn23)CC1` [drawing 106], the pest or weed control at 100 g/ha in the experiment on Venturia inaequalis is 99%.

With `N#Cc1cnn2c(N3CCC(F)CC3)c(-c3c(F)cccc3Cl)c(Cl)nc12` [drawing 107], in the experiment on Venturia inaequalis, the pest or weed control at 100 g/ha is 98%.

As for `CC(C)CN(C)c1c(-c2c(F)cccc2Cl)c(Cl)nc2c(C#N)cnn12` [drawing 108], the pest or weed control at 100 g/ha with Venturia inaequalis is 99%.

For the compound `C=C(C)CN(CC)c1c(-c2c(F)cccc2Cl)c(Cl)nc2c(C#N)cnn12` [drawing 109], the pest or weed control at 100 g/ha in the experiment with Venturia inaequalis was determined as 100%.

On to `C[C@H](Nc1c(-c2c(F)cccc2Cl)c(Cl)nc2c(C#N)cnn12)C(F)(F)F` [drawing 110], for which the pest or weed control at 100 g/ha in the experiment with Venturia inaequalis stood at 100%.

The compound `N#Cc1cnn2c(N3CCOCC3)c(-c3c(F)cccc3Cl)c(Cl)nc12` [drawing 131] gave an Efficacy in % in the experiment with Alternaria solani of 95%.

With `N#Cc1cnn2c(N3CCCCC3)c(-c3c(F)cccc3Cl)c(Cl)nc12` [drawing 132], the Efficacy in % in the experiment with Alternaria solani is listed as 95%.

In turn, `CC(C)CNc1c(-c2ccc(F)cc2F)c(Cl)nc2c(C#N)cnn12` [drawing 133] gave an Efficacy in % with Alternaria solani of 95%.

`C=C(C)CN(CC)c1c(-c2c(F)cc(F)cc2F)c(Cl)nc2c(C#N)cnn12` [drawing 134] yielded an Efficacy in % in the experiment with Alternaria solani of 95%.

For the compound `C[C@H](Nc1c(-c2c(F)cc(F)cc2F)c(Cl)nc2c(C#N)cnn12)C(F)(F)F` [drawing 135], in the experiment with Alternaria solani, the Efficacy in % turned out to be 95%.

For the compound `N#Cc1cnn2c(N3CCC(F)(F)CC3)c(-c3c(F)cc(F)cc3F)c(Cl)nc12` [drawing 136], the Efficacy in % in the experiment on Alternaria solani came to 90%.

As for `CC(Nc1c(-c2ccc(F)cc2Cl)c(Cl)nc2c(C#N)cnn12)C(F)(F)F` (stereo not drawn) [drawing 137], in experiment [1], the Efficacy in % is given as 88%.

In experiment [1], `C=C(C)CN(CC)c1c(-c2c(F)cc(F)cc2F)c(Cl)nc2c(C#N)cnn12` [drawing 138] showed an Efficacy in % of 100%.

`C[C@H](Nc1c(-c2c(F)cc(F)cc2F)c(Cl)nc2c(Cl)cnn12)C(F)(F)F` [drawing 139] registered an Efficacy in % in experiment [1] of 80%.

As to `C[C@H](Nc1c(-c2c(F)cc(F)cc2F)c(Cl)nc2c(Cl)cnn12)C(F)(F)F` [drawing 140], the Efficacy in % in the experiment with Pyricularia oryzae is 88%.

Regarding `C[C@H](Nc1c(-c2c(F)cc(F)cc2F)c(Cl)nc2c(C#N)cnn12)C(F)(F)F` [drawing 141], the Efficacy in % with Pyricularia oryzae is on record as 88%.

Turning to `N#Cc1cnn2c(NCC3CC3)c(-c3c(F)cc(F)cc3F)c(Cl)nc12` [drawing 142], the Efficacy in % in the experiment with Pyricularia oryzae is recorded as 86%.

The compound `C[C@H](Nc1c(-c2ccccc2F)c(Cl)nc2c(C#N)cnn12)C(F)(F)F` [drawing 143] had an Efficacy in % with Pyricularia oryzae of 75%.

As to `CC(Nc1c(-c2ccc(F)cc2Cl)c(Cl)nc2c(C#N)cnn12)C(F)(F)F` (stereo not drawn) [drawing 144], the “Kill rate in % after 7^d” value in experiment [2] is 100%.
